For CO[C@H]1C[C@@H]2CC[C@@H](C)[C@@](O)(O2)C(=O)C(=O)N2CCCC[C@H]2C(=O)O[C@H]([C@H](C)C[C@@H]2CC[C@@H](O)[C@H](OC)C2)CC(=O)[C@H](C)/C=C(\C)[C@@H](O)[C@@H](OC)C(=O)[C@H](C)C[C@H](C)/C=C/C=C/C=C/1C, the solubility (mole fraction) (in acetone, 295 K) was 0.00316, the solubility (mole fraction) (in acetone, 300 K) was 0.00321 and the solubility (mole fraction) (in acetone, 305 K) was 0.00343. For the same compound, the solubility (mole fraction) (in acetone, 310 K) was 0.00388, the solubility (mole fraction) (in acetone, 315 K) was 0.00433 and the solubility (mole fraction) (in acetone, 320 K) was 0.0047. It also gave a solubility (mole fraction) (in acetone, 325 K) of 0.00487, a solubility (mole fraction) (in acetone, 330 K) of 0.00511 and a solubility (mole fraction) (in acetone, 335 K) of 0.00545. The solubility (mole fraction) (in acetone, 340 K) was 0.00627, the solubility (mole fraction) (in acetone, 345 K) was 0.00721 and the solubility (mole fraction) (in chloroform, 295 K) was 0.00272. For the same compound, the solubility (mole fraction) (in chloroform, 300 K) was 0.00289, the solubility (mole fraction) (in chloroform, 305 K) was 0.00311 and the solubility (mole fraction) (in chloroform, 310 K) was 0.00325. For the same compound, the solubility (mole fraction) (in chloroform, 315 K) was 0.00346, the solubility (mole fraction) (in chloroform, 320 K) was 0.00369 and the solubility (mole fraction) (in chloroform, 325 K) was 0.00386. It also gave a solubility (mole fraction) (in chloroform, 330 K) of 0.00413, a solubility (mole fraction) (in chloroform, 335 K) of 0.00437 and a solubility (mole fraction) (in chloroform, 340 K) of 0.00458. It also gave a solubility (mole fraction) (in chloroform, 345 K) of 0.00495, a solubility (mole fraction) (in dichloromethane, 295 K) of 0.0019 and a solubility (mole fraction) (in dichloromethane, 300 K) of 0.00201. It also gave a solubility (mole fraction) (in dichloromethane, 305 K) of 0.0022, a solubility (mole fraction) (in dichloromethane, 310 K) of 0.00246 and a solubility (mole fraction) (in dichloromethane, 315 K) of 0.00271. The solubility (mole fraction) (in dichloromethane, 320 K) was 0.00279, the solubility (mole fraction) (in dichloromethane, 325 K) was 0.00306 and the solubility (mole fraction) (in dichloromethane, 330 K) was 0.00333. For the same compound, the solubility (mole fraction) (in dichloromethane, 335 K) was 0.00351, the solubility (mole fraction) (in dichloromethane, 340 K) was 0.00397 and the solubility (mole fraction) (in dichloromethane, 345 K) was 0.00433. For the same compound, the solubility (mole fraction) (in ethanol, 295 K) was 0.00137, the solubility (mole fraction) (in ethanol, 300 K) was 0.00143 and the solubility (mole fraction) (in ethanol, 305 K) was 0.00163. The solubility (mole fraction) (in ethanol, 310 K) was 0.00184, the solubility (mole fraction) (in ethanol, 315 K) was 0.00197 and the solubility (mole fraction) (in ethanol, 320 K) was 0.0021. For the same compound, the solubility (mole fraction) (in ethanol, 325 K) was 0.00237, the solubility (mole fraction) (in ethanol, 330 K) was 0.00259 and the solubility (mole fraction) (in ethanol, 335 K) was 0.00275. It also gave a solubility (mole fraction) (in ethanol, 340 K) of 0.00291, a solubility (mole fraction) (in ethanol, 345 K) of 0.00317 and a solubility (mole fraction) (in methanol, 295 K) of 0.00072. The solubility (mole fraction) (in methanol, 300 K) was 0.00088, the solubility (mole fraction) (in methanol, 305 K) was 0.00107 and the solubility (mole fraction) (in methanol, 310 K) was 0.00123. For the same compound, the solubility (mole fraction) (in methanol, 315 K) was 0.00143, the solubility (mole fraction) (in methanol, 320 K) was 0.00146 and the solubility (mole fraction) (in methanol, 325 K) was 0.00163. It also gave a solubility (mole fraction) (in methanol, 330 K) of 0.00171, a solubility (mole fraction) (in methanol, 335 K) of 0.00183 and a solubility (mole fraction) (in methanol, 340 K) of 0.00188. For the same compound, the solubility (mole fraction) (in methanol, 345 K) was 0.00205.

Reference: BigSolDB 2.1
